Experimental data published in patent US20240051946A1, “TARGETED PROTEIN DEGRADATION OF PARP14 FOR USE IN THERAPY” (Ribon Therapeutics, Inc., priority 2022, published 2024).

Biological target: T1, catalytic domain of human PARP14 (residues 1611 to 1801) with NanoLuc tag (Homo sapiens, UniProt Q460N5)
T1 construct: expressed in transfected cells; host or cells: HEK-293T cells (ATCC), plasmid pRTX240 in pcDNA3.1(-)
T1 sequence (Q460N5 1611-1801): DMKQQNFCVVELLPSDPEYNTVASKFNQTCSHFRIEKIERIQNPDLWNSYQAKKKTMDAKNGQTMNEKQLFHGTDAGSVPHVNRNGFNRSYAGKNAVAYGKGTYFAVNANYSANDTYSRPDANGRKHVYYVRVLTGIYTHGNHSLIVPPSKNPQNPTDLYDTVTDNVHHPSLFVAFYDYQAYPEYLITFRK
Experiment: NanoLuc assay for the degradation of PARP14
Type: cell-based
Details: Assay A; NanoLuc-PARP14 overexpressed in HEK-293T cells; 2 hours at 37 degrees; luminescence
Procedure: The catalytic domain of human PARP14 (residues 1611 to 1801, GenBank Accession No. NM_017554) was inserted into the pcDNA3.1(−) vector. The insert also contained a NanoLuc tag on the N terminus of the PARP14 protein.
Degradation of PARP14 protein was assessed using measurement of the NanoLuc tag as proxy for the PARP14 protein. PARP14 with NanoLuc tag was overexpressed in […] cells (ATCC) using the plasmid described in Table 1. Plasmid DNA was diluted in empty vector DNA then added to 1.163 mL of phenol red free OptiMEM (Thermo Fisher). Plasmid DNA concentrations used in each assay described in Table 1. The plasmid DNA was mixed with 78.5 μL of Fugene HD (Promega) and allowed to incubate 5 minutes.
Next, 1.125 mL were added to 10 million 293T cells in DMEM (Thermo Fisher) supplemented with 10% FBS (VWR) and 1× Glutamax (Gibco). The transfection was incubated for 24 hrs at 37 degrees in an incubator supplemented with 5% CO2. The cells were then trypsinized and brought up in phenol red free OptiMEM media. Transfected HEK-293T cells were diluted to […] and then added to assay plate (Corning 3574) using a Multidrop (Thermo Fisher) to add 40 μL per well of the 384 well plate, resulting in 5,000 cells per well. 40 nL of a dose response curve diluted in DMSO of each test compound was added to the cell plate using a Mosquito (TTP Labtech) and the plate was incubated at 37 degrees for 2 hours. Assay plate was brought to room temperature then 20 μL per well of NanoGlo (Promega) was added to the plate. Luminescence was measured on an Envision (Perkin Elmer).
The average DMSO was calculated from 32 wells containing 0.1% DMSO only in columns 12 and 24 of the assay plate. The % of DMSO values were calculated as described below: […]
The % of DMSO values were plotted as a function of compound concentration and the following 4-parameter fit was applied to derive the DC50 values:
where top, bottom, and Hill Coefficient are allowed to float. Y is the % of DMSO and X is the compound concentration.
DC50 data for the Example compounds is provided below in Table 2 (“+” is <0.1 μM; “++” is ≥0.1 μM and <1 μM; and “+++” is ≥1 μM).

Row | Compound | DC50 [nM]
1 | O=C(CN1CCC(SCc2nc3cc(OCC4CCOCC4)cc(F)c3c(=O)[nH]2)CC1)NCCCC(=O)N1CCC(c2cccc(NC3CCC(=O)NC3=O)c2)CC1 (stereo not shown) [Example 14, N-(4-(4-(3-((2,6-dioxopiperidin-3-yl)amino)phenyl)piperidin-1-yl)-4-oxobutyl)-2-(4-(((5-fluoro-4-oxo-7-((tetrahydro-2H-pyran-4-yl)methoxy)-3,4-dihydroquinazolin-2-yl)methyl)thio)piperidin-1-yl)acetamide] | < 100
2 | O=C(CN1CCC(SCc2nc3cc(OCC4CCOCC4)cc(F)c3c(=O)[nH]2)CC1)NCCCCCC(=O)N1CCC(c2ccc(NC3CCC(=O)NC3=O)cc2)CC1 (stereo not shown) [Example 6, N-(6-(4-(4-((2,6-dioxopiperidin-3-yl)amino)phenyl)piperidin-1-yl)-6-oxohexyl)-2-(4-(((5-fluoro-4-oxo-7-((tetrahydro-2H-pyran-4-yl)methoxy)-3,4-dihydroquinazolin-2-yl)methyl)thio)piperidin-1-yl)acetamide] | < 100
3 | O=C1CCC(N2C(=O)c3cccc(N4CCN(CC5CCN(C(=O)CN6CCC(SCc7nc8cc(NC9CCCC9)cc(F)c8c(=O)[nH]7)CC6)CC5)CC4)c3C2=O)C(=O)N1 (stereo not shown) [Example 1, 4-(4-((1-(2-(4-(((7-(cyclopentylamino)-5-fluoro-4-oxo-3,4-dihydroquinazolin-2-yl)methyl)thio)piperidin-1-yl)acetyl)piperidin-4-yl)methyl)piperazin-1-yl)-2-(2,6-dioxopiperidin-3-yl)isoindoline-1,3-dione] | < 100
4 | CC(=O)N1CCC(COc2cc(F)c3c(=O)[nH]c(CSC4CCN(CC#Cc5ccc6c(c5)n(C)c(=O)n6C5CCC(=O)NC5=O)CC4)nc3c2)CC1 (stereo not shown) [Example 36, 3-(5-(3-(4-(((7-((1-acetylpiperidin-4-yl)methoxy)-5-fluoro-4-oxo-3,4-dihydroquinazolin-2-yl)methyl)thio)piperidin-1-yl)prop-1-yn-1-yl)-3-methyl-2-oxo-2,3-dihydro-1H-benzo[d]imidazol-1-yl)piperidine-2,6-dione] | < 100
5 | CC(=O)N1CCC(COc2cc(F)c3c(=O)[nH]c(CSC4CCN(C(=O)c5ccc(NC6CCC(=O)NC6=O)cc5)CC4)nc3c2)CC1 (stereo not shown) [Example 25, 3-((4-(4-(((7-((1-acetylpiperidin-4-yl)methoxy)-5-fluoro-4-oxo-3,4-dihydroquinazolin-2-yl)methyl)thio)piperidine-1-carbonyl)phenyl)amino)piperidine-2,6-dione] | < 100
6 | O=C1CCN(c2ccc(C3CCN(CC4CCN(C(=O)CN5CCC(SCc6nc7cc(OCC8CCOCC8)cc(F)c7c(=O)[nH]6)CC5)CC4)CC3)cc2)C(=O)N1 [Example 20, 1-(4-(1-((1-(2-(4-(((5-fluoro-4-oxo-7-((tetrahydro-2H-pyran-4-yl)methoxy)-3,4-dihydroquinazolin-2-yl)methyl)thio)piperidin-1-yl)acetyl)piperidin-4-yl)methyl)piperidin-4-yl)phenyl)dihydropyrimidine-2,4(1H,3H)-dione] | < 100
7 | O=C(CN1CCC(SCc2nc3cc(OCC4CCOCC4)cc(F)c3c(=O)[nH]2)CC1)NCCCCN1CCC(c2ccc(NC3CCC(=O)NC3=O)cc2)CC1 (stereo not shown) [Example 7, N-(4-(4-(4-((2,6-dioxopiperidin-3-yl)amino)phenyl)piperidin-1-yl)butyl)-2-(4-(((5-fluoro-4-oxo-7-((tetrahydro-2H-pyran-4-yl)methoxy)-3,4-dihydroquinazolin-2-yl)methyl)thio)piperidin-1-yl)acetamide] | < 100
8 | O=C1CCC(N2C(=O)c3cccc(N4CCN(CC5CCN(C(=O)CN6CCC(SCc7nc8cc(OCC9CCOCC9)cc(F)c8c(=O)[nH]7)CC6)CC5)CC4)c3C2=O)C(=O)N1 (stereo not shown) [Example 2, 2-(2,6-dioxopiperidin-3-yl)-4-(4-((1-(2-(4-(((5-fluoro-4-oxo-7-((tetrahydro-2H-pyran-4-yl)methoxy)-3,4-dihydroquinazolin-2-yl)methyl)thio)piperidin-1-yl)acetyl)piperidin-4-yl)methyl)piperazin-1-yl)isoindoline-1,3-dione] | < 100
9 | CC(=O)N1CCC(COc2cc(F)c3c(=O)[nH]c(CSC4CCN(CC#Cc5ccc(N6CCC(=O)NC6=O)cc5)CC4)nc3c2)CC1 [Example 37, 1-(4-(3-(4-(((7-((1-acetylpiperidin-4-yl)methoxy)-5-fluoro-4-oxo-3,4-dihydroquinazolin-2-yl)methyl)thio)piperidin-1-yl)prop-1-yn-1-yl)phenyl)dihydropyrimidine-2,4(1H,3H)-dione] | < 100
10 | O=C(CN1CCC(SCc2nc3cc(OCC4CCOCC4)cc(F)c3c(=O)[nH]2)CC1)NCCCCCC(=O)N1CCC(c2cccc(NC3CCC(=O)NC3=O)c2)CC1 (stereo not shown) [Example 12, N-(6-(4-(3-((2,6-dioxopiperidin-3-yl)amino)phenyl)piperidin-1-yl)-6-oxohexyl)-2-(4-(((5-fluoro-4-oxo-7-((tetrahydro-2H-pyran-4-yl)methoxy)-3,4-dihydroquinazolin-2-yl)methyl)thio)piperidin-1-yl)acetamide] | < 100

Further lines, results first:

Row | DC50 [nM] | Compound
11 | < 100 | CC(=O)N1CCC(COc2cc(F)c3c(=O)[nH]c(CSC4CCN(C(=O)C5CCN(CC6CCN(c7cccc8c7C(=O)N(C7CCC(=O)NC7=O)C8=O)CC6)CC5)CC4)nc3c2)CC1 (stereo not shown) [Example 22, 4-(4-((4-(4-(((7-((1-acetylpiperidin-4-yl)methoxy)-5-fluoro-4-oxo-3,4-dihydroquinazolin-2-yl)methyl)thio)piperidine-1-carbonyl)piperidin-1-yl)methyl)piperidin-1-yl)-2-(2,6-dioxopiperidin-3-yl)isoindoline-1,3-dione]
12 | < 100 | CC(=O)N1CCC(COc2cc(F)c3c(=O)[nH]c(CSC4CCN(C(=O)CNc5cccc6c5C(=O)N(C5CCC(=O)NC5=O)C6=O)CC4)nc3c2)CC1 (stereo not shown) [Example 21, 4-((2-(4-(((7-((1-acetylpiperidin-4-yl)methoxy)-5-fluoro-4-oxo-3,4-dihydroquinazolin-2-yl)methyl)thio)piperidin-1-yl)-2-oxoethyl)amino)-2-(2,6-dioxopiperidin-3-yl)isoindoline-1,3-dione]
13 | 100 to 1000 | CC(=O)N1CCC(COc2cc(F)c3c(=O)[nH]c(CSC4CCN(CC(=O)Nc5cccc6c5C(=O)N(C5CCC(=O)NC5=O)C6=O)CC4)nc3c2)CC1 (stereo not shown) [Example 31, 2-(4-(((7-((1-acetylpiperidin-4-yl)methoxy)-5-fluoro-4-oxo-3,4-dihydroquinazolin-2-yl)methyl)thio)piperidin-1-yl)-N-(2-(2,6-dioxopiperidin-3-yl)-1,3-dioxoisoindolin-4-yl)acetamide]
14 | < 100 | CC(=O)N1CCC(COc2cc(F)c3c(=O)[nH]c(CSC4CCN(CC#Cc5cccc6c5n(C)c(=O)n6C5CCC(=O)NC5=O)CC4)nc3c2)CC1 (stereo not shown) [Example 35, 3-(4-(3-(4-(((7-((1-acetylpiperidin-4-yl)methoxy)-5-fluoro-4-oxo-3,4-dihydroquinazolin-2-yl)methyl)thio)piperidin-1-yl)prop-1-yn-1-yl)-3-methyl-2-oxo-2,3-dihydro-1H-benzo[d]imidazol-1-yl)piperidine-2,6-dione]
15 | < 100 | CC(=O)N1CCC(COc2cc(F)c3c(=O)[nH]c(CSC4CCN(CC(=O)N5CCC(CN6CCN(c7cccc8c7C(=O)N(C7CCC(=O)NC7=O)C8=O)CC6)CC5)CC4)nc3c2)CC1 (stereo not shown) [Example 19, 4-(4-((1-(2-(4-(((7-((1-acetylpiperidin-4-yl)methoxy)-5-fluoro-4-oxo-3,4-dihydroquinazolin-2-yl)methyl)thio)piperidin-1-yl)acetyl)piperidin-4-yl)methyl)piperazin-1-yl)-2-(2,6-dioxopiperidin-3-yl)isoindoline-1,3-dione]
16 | < 100 | CC(=O)N1CCC(COc2cc(F)c3c(=O)[nH]c(CSC4CCN(CC5CCN(c6ccc7c(c6)C(=O)N(C6CCC(=O)NC6=O)C7=O)CC5)CC4)nc3c2)CC1 (stereo not shown) [Example 33, 5-(4-((4-(((7-((1-acetylpiperidin-4-yl)methoxy)-5-fluoro-4-oxo-3,4-dihydroquinazolin-2-yl)methyl)thio)piperidin-1-yl)methyl)piperidin-1-yl)-2-(2,6-dioxopiperidin-3-yl)isoindoline-1,3-dione]
